Experimental data from US6972296B2, “Carboxylic acid derivatives that inhibit the binding of integrins to their receptors” (Encysive Pharmaceuticals Inc., priority 1999, dated 2005).

Target: T1, α4β1 integrin (Homo sapiens, UniProt P05556+P13612)
T1 construct: endogenous in cells; host or cells: Ramos cells
Experiment: Adhesion of calcein-labeled Ramos cells to CS1 (fibronectin) peptide conjugated ovalbumin
Assay type: cell-based
Settings: Ramos cell adhesion to CS1 conjugated ovalbumin
In short: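 Plates bearing CS1 fibronectin peptide coupled to ovalbumin (0.5 μg/ml coat, 3% BSA block) received calcein-labelled Ramos cells plus compound (100 μM stated) for 30 min at 37 °C. Buffer was TBS pH 7.5 with 1 mM Mg2+, Ca2+, Mn2+; bound cells quantified by fluorescence after lysis; […].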

[1] = Table 7, dose required to give 50% inhibition
[2] = Table 5, dose required to give 50% inhibition

T1 sequence (P13612 34-1032): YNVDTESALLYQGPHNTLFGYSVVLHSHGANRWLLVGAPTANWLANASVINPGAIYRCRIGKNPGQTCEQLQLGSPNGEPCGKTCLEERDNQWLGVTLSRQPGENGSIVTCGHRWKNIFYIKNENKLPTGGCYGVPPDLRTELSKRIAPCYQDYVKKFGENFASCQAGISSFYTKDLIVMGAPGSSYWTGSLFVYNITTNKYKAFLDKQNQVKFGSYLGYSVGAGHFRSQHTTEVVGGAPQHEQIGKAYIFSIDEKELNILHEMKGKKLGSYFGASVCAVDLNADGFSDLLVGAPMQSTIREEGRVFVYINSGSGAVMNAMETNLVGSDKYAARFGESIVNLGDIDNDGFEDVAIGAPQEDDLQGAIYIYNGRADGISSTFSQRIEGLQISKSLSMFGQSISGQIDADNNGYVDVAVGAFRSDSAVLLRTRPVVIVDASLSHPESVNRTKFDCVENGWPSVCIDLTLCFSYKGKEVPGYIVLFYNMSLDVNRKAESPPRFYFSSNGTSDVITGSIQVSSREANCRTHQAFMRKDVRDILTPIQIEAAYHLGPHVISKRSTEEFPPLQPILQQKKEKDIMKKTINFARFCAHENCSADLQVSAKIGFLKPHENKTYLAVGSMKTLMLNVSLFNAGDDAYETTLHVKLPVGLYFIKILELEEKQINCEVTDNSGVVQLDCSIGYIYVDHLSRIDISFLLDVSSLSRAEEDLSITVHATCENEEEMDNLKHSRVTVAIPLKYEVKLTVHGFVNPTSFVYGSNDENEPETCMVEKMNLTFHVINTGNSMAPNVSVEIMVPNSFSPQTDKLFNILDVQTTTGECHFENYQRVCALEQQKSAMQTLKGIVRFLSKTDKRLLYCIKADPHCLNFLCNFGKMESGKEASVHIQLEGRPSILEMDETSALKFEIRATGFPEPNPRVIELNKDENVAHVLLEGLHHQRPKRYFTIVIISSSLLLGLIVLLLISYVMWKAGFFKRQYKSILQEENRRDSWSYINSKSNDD
T1 sequence (P05556 21-798): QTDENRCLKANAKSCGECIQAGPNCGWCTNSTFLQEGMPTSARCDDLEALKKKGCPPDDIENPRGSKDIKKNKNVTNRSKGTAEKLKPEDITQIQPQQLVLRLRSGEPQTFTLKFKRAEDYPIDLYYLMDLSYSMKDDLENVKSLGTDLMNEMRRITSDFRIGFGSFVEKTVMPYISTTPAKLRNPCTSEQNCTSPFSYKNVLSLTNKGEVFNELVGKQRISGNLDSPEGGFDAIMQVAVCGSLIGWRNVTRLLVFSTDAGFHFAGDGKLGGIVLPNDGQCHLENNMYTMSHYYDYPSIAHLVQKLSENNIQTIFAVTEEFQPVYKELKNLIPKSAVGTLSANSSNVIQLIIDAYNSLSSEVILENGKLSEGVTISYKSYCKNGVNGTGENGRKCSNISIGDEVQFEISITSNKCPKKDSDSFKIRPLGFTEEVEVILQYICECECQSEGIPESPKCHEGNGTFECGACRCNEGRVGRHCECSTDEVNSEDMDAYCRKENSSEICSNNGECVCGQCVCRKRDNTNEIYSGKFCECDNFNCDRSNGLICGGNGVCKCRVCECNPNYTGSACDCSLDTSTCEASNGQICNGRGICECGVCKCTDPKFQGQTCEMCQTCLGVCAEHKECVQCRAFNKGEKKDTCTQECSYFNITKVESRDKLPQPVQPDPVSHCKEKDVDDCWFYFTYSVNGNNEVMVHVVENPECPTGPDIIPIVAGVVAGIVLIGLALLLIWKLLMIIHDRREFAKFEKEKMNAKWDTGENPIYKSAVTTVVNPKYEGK

IC50 [1] [nM] | Structure (SMILES) | other results
10 | Cc1cccc(Cl)c1Cn1c2c(c(O)c(NC(=O)N[C@@H](CC(=O)O)c3cccc(OC(C)C)c3)c1=O)CCC2 | 
 | Cc1ccc([C@H](CC(=O)O)NC(=O)Nc2cccn(Cc3ccccc3C#N)c2=O)cc1 | IC50 (Table 4, 30 minutes at 37° C.): 100 nM
27 | Cc1ccc([C@H](CC(=O)O)NC(=O)Nc2c(O)c(C)cn(Cc3cc(S(=O)(=O)N4CCCCC4)ccc3Cl)c2=O)cc1 | 
 | O=C(O)C[C@H](NC(=O)Nc1c(O)ccn(Cc2ccccc2Cl)c1=O)c1cccc(C(F)(F)F)c1 [(3S)-3-{[({1-[(2-chlorophenyl)methyl]-4-hydroxy-2-oxo-1,2-dihydro-3-pyridinyl}amino)carbonyl]amino}-3-[3-(trifluoromethyl)phenyl]propanoic acid] | IC50 (Table 3, 30 minutes at 37° C.): 20 nM
8 | O=C(O)C[C@H](NC(=O)Nc1c(O)c2c(n(Cc3ccccc3Cl)c1=O)CCC2)c1ccccc1 | 
 | O=C(O)C[C@H](NC(=O)Nc1c(O)ccn(Cc2ccccc2Cl)c1=O)c1cccc(OC2CCCC2)c1 | IC50 (Table 6, 30 minutes at 37° C.): 5 nM
3 | CS(=O)(=O)Nc1cccc([C@H](CC(=O)O)NC(=O)Nc2c(O)c3c(n(Cc4ccccc4Cl)c2=O)CCC3)c1 [(3S)-3-{[({1-[(2-chlorophenyl)methyl]-4-hydroxy-2-oxo-2,5,6,7-tetrahydro-1H-cyclopenta[b]pyridin-3-yl}amino)carbonyl]amino}-3-{3-[(methylsulfonyl)amino]phenyl}propanoic acid] | 
 | Cc1ccc(Cn2cc(C)c(O)c(NC(=O)N[C@@H](CC(=O)O)c3ccc(C)cc3)c2=O)cc1 | IC50 (Table 6, 30 minutes at 37° C.): 150 nM
 | O=C(O)C[C@H](NC(=O)N[C@H]1CCCCN(Cc2cccs2)C1=O)c1ccc2c(c1)OCO2 | IC50 (Table 2, 30 minutes at 37° C.): 15 nM
2 | CCOc1cccc(Cl)c1Cn1c2c(c(O)c(NC(=O)N[C@@H](CC(=O)O)c3ccccc3)c1=O)CCC2 [(3S)-3-[({[1-(2-chloro-6-ethoxybenzyl)-4-hydroxy-2-oxo-2,5,6,7-tetrahydro-1H-cyclopenta[b]pyridin-3-yl]amino}carbonyl)amino]-3-phenylpropanoic acid] | 
15 | CSc1ccc(C(CC(=O)O)NC(=O)Nc2c(O)c(C)cn(Cc3ccccc3Cl)c2=O)cc1 (centres unmarked) | 
 | CCOc1cc(OCC)cc([C@H](CC(=O)O)NC(=O)Nc2c(O)ccn(Cc3ccccc3Cl)c2=O)c1 | IC50 (Table 6, 30 minutes at 37° C.): 7 nM
 | Cc1ccc([C@H](CC(=O)O)NC(=O)Nc2cccn(Cc3cccc(Cl)c3)c2=O)cc1 | IC50 [2]: 500 nM
157 | Cc1cn(Cc2ccccc2Cl)c(=O)c(NC(=O)N[C@@H](CC(=O)O)c2cccc(-c3ccccc3C(F)(F)F)c2)c1O | 
9 | Cc1cc(C)cc([C@H](CC(=O)O)NC(=O)Nc2c(O)c3c(n(Cc4ccccc4Cl)c2=O)CCC3)c1 [(3S)-3-[({[1-(2-chlorobenzyl)-4-hydroxy-2-oxo-2,5,6,7-tetrahydro-1H-cyclopenta[b]pyridin-3-yl]amino}carbonyl)amino]-3-(3,5-dimethylphenyl)propanoic acid] | 
8 | CCOc1cccc(Cl)c1Cn1cc(C)c(O)c(NC(=O)NC(CC(=O)O)c2ccco2)c1=O (centres unmarked) | 
30 | CCOc1cc([C@H](CC(=O)O)NC(=O)Nc2c(O)c3c(n(Cc4ccccc4Cl)c2=O)CCC3)ccc1Cl | 
4 | CCn1c(=O)n(CC)c2cc([C@H](CC(=O)O)NC(=O)Nc3c(O)c4c(n(Cc5ccccc5Cl)c3=O)CCC4)ccc21 | 
 | CCCCOc1ccc([C@H](CC(=O)O)NC(=O)Nc2c(O)ccn(Cc3ccccc3Cl)c2=O)cc1OCCCC | IC50 [2]: 25 nM
 | COCCOCCOCCOc1ccn(Cc2ccccc2Cl)c(=O)c1NC(=O)N[C@@H](CC(=O)O)c1ccc(C)cc1 | IC50 (Table 3, 30 minutes at 37° C.): 2 nM
2 | CCOc1cccc(Cl)c1Cn1nc(C)c(O)c(NC(=O)N[C@@H](CC(=O)O)c2cccc(OC(C)C)c2)c1=O | 
2 | Cc1cccc(Cl)c1Cn1c2c(c(O)c(NC(=O)N[C@@H](CC(=O)O)c3ccc4[nH]ccc4c3)c1=O)CCC2 [(3S)-3-{[({1-[(2-chloro-6-methylphenyl)methyl]-4-hydroxy-2-oxo-2,5,6,7-tetrahydro-1H-cyclopenta[b]pyridin-3-yl}amino)carbonyl]amino}-3-(1H-indol-5-yl)propanoic acid] | 
6 | Cc1cn(Cc2ccccc2Cl)c(=O)c(NC(=O)N[C@@H](CC(=O)O)c2ccc3c(c2)CCO3)c1O | 
